From patent US11091447B2, “UBE2K modulators and methods for their use” (Berg LLC, priority 2020, dated 2021)

System: MIA PaCa-2 cells
Experiment: Cellular viability assay (Cell Titer Fluor)
Format: cell-based
Conditions: 72 hours incubation
Experimental: Cell viability were performed using the Cell Titer Fluor™ Assays (Promega G6080). MIA PaCa-2 cells are grown in DMEM media with 10% FBS, 1% Pen/Strep/Amphotericin B. Cells are trypsinized and counted using the Nexcelom cellometer. 5,000 cells/100 μl are plated per well in Greiner black/clear 96-well plates. Cells should be within 10 passages of stock vial for use in workflow. Three distinct lineages of these cells are cultured in parallel for multiple passages and 5 full plates of each lineage are seeded for one run. Small molecule compounds are provided as 100 mM stock solutions in DMSO. Dilution series plates are prepared using 1:3 dilution to achieve a 7 point concentration on a half log scale. After addition of compounds, cells are incubated 37° C., 5% CO2 for 72 hours.
For each test compound condition, triplicate technical replicates are used. For each reference compound, duplicate technical replicates are used. At the end of the 72-hour incubation, spent media is discarded. Then, 100 μl of GF-AFC diluted in DMEM (serum and phenol red-free) is added at 1:2000 concentration (5 μl/10 ml). Cells are incubated with reaction buffer for 1 h at 37° C. Fluorescence is then read on the plate reader with excitation wavelength of 390 nm and emission wavelength of 505 nm. All raw data are analyzed on Microsoft Excel 2010 and normalized to the DMSO vehicle control. Relative results are copied into GraphPad Prism for non-linear regression analysis and determination of IC50 and other dose curve parameters (min, max, Hill slope, etc.) using the log (inhibitor) vs. response equation. Values are as follows: A represents an IC50 of <[…], B represents an IC50 of 1 mM to 10 mM, C represents an IC50 of >10 mM.

IC50 (Homo sapiens, MIA PaCa-2, 72 h) [µM] | IC50 [µM] | Structure (SMILES)
> 10 | – | O=C(NCc1cc(-c2cccs2)[nH]n1)c1ccccc1OC(F)F [Compound 4]
> 10 | – | O=C(NCc1cc(-c2cccs2)[nH]n1)c1ccccc1OC(F)(F)F [Compound 5]
> 10 | – | O=C(NCc1cc(-c2cccs2)[nH]n1)c1ccc(O)cc1C(F)(F)F [Compound 13]
> 10 | – | O=C(NCc1n[nH]c(-c2cccs2)n1)c1ccccc1OC(F)(F)F [Compound 14]
> 10 | – | Cc1cscc1-c1cc(CNC(=O)c2ccccc2OC(F)(F)F)n[nH]1 [Compound 16, N-((5-(4-methylthiophen-3-yl)-1H-pyrazol-3-yl)methyl)-2-(trifluoromethoxy) benzamide]
> 10 | – | Cc1sccc1-c1cc(CNC(=O)c2ccccc2OC(F)(F)F)n[nH]1 [Compound 17]
> 10 | – | COc1ccc(C(F)(F)F)cc1-c1cc(CNC(=O)c2ccccc2OC(F)(F)F)n[nH]1 [Compound 20]
> 10 | – | O=C(NCc1cc(-c2csc(Cl)c2)[nH]n1)c1ccccc1OC(F)(F)F [Compound 21]
> 10 | – | O=C(NCc1cc(-c2ccsc2Cl)[nH]n1)c1ccccc1OC(F)(F)F [Compound 22]
> 10 | – | Cc1cn[nH]c1-c1cc(CNC(=O)c2ccccc2OC(F)(F)F)n[nH]1 [Compound 24]
> 10 | – | O=C(NCc1cc(-c2ccn[nH]2)[nH]n1)c1ccccc1OC(F)(F)F [Compound 25]
> 10 | – | COc1ncccc1-c1cc(CNC(=O)c2ccccc2OC(F)(F)F)n[nH]1 [Compound 27]
> 10 | – | O=C(NCc1cc(-c2cccnc2O)[nH]n1)c1ccccc1OC(F)(F)F [Compound 28]
> 10 | – | O=C(NCc1cc(-c2cccc3cn[nH]c23)[nH]n1)c1ccccc1OC(F)(F)F [Compound 29]
> 10 | – | CN(C)c1ccccc1-c1cc(CNC(=O)c2ccccc2OC(F)(F)F)n[nH]1 [Compound 30]
< 1 | – | COc1ccccc1-c1cc(CNC(=O)c2ccccc2OC(F)(F)F)n[nH]1 [Compound 31]
1 to 10 | – | COc1ccncc1-c1cc(CNC(=O)c2ccccc2OC(F)(F)F)n[nH]1 [Compound 33]

IC50 (Homo sapiens, MIA PaCa-2, 72 h) [µM] | IC50 [µM] | Structure (SMILES)
1 to 10 | – | COc1cccnc1-c1nc(CNC(=O)c2ccccc2OC(F)(F)F)n[nH]1 [Compound 34, N-((5-(3-methoxypyridin-2-yl)-1H-1,2,4-triazol-3-yl)methyl)-2-(trifluoromethoxy)benzamide]
1 to 10 | – | COc1ccncc1-c1nc(CNC(=O)c2ccccc2OC(F)(F)F)n[nH]1 [Compound 35]
< 1 | – | COc1ccsc1-c1cc(CNC(=O)c2ccccc2OC(F)(F)F)n[nH]1 [Compound 36]
> 10 | – | COc1cnccc1-c1cc(CNC(=O)c2ccccc2OC(F)(F)F)n[nH]1 [Compound 37]
> 10 | – | COc1ccc(OC)c(-c2cc(CNC(=O)c3ccccc3OC(F)(F)F)n[nH]2)c1 [Compound 39]
> 10 | – | O=C(NCc1cc(-c2cc(O)ccc2O)[nH]n1)c1ccccc1OC(F)(F)F [Compound 40, N-((5-(2,5-dihydroxyphenyl)-1H-pyrazol-3-yl)methyl)-2-(trifluoromethoxy) benzamide]
> 10 | – | O=C(NCc1cc(-c2cccc(O)c2O)[nH]n1)c1ccccc1OC(F)(F)F [Compound 43]
1 to 10 | – | CCOc1ccc(F)cc1-c1cc(CNC(=O)c2ccccc2OC(F)(F)F)n[nH]1 [Compound 44]
> 10 | – | CCOc1ccc(Cl)cc1-c1cc(CNC(=O)c2ccccc2OC(F)F)n[nH]1 [Compound 47]
1 to 10 | – | COc1ccc(Cl)cc1-c1cc(CNC(=O)c2ccccc2OC(F)(F)F)n[nH]1 [Compound 48]
1 to 10 | – | COc1c(F)cc(F)cc1-c1cc(CNC(=O)c2ccccc2OC(F)(F)F)n[nH]1 [Compound 49]
> 10 | – | O=C(NCc1cc(-c2cc(F)cc(F)c2O)[nH]n1)c1ccccc1OC(F)(F)F [Compound 50]
< 1 | – | COc1ccc(F)cc1-c1cc(CNC(=O)c2ccccc2OC(F)(F)F)n[nH]1 [Compound 51]
– | > 10 | O=C(NCc1cc(-c2cc(F)ccc2O)[nH]n1)c1ccccc1OC(F)(F)F [Compound 52]
< 1 | – | O=C(NCc1cc(-c2ccccc2O)[nH]n1)c1ccccc1OC(F)(F)F [Compound 53]
< 1 | – | CCOc1ccccc1-c1nc(CNC(=O)c2ccccc2OC(F)(F)F)n[nH]1 [Compound 57]

Continued, molecule first:

Structure (SMILES) | IC50 (Homo sapiens, MIA PaCa-2, 72 h) [µM] | IC50 [µM]
COc1ccc(F)cc1-c1nc(CNC(=O)c2cc(F)ccc2OC(F)F)n[nH]1 [Comp 137] | < 1 | –
O=C(NCc1n[nH]c(-c2cccs2)n1)c1ccccc1CC(F)(F)F [Compound 8] | > 10 | –
O=C(NCc1n[nH]c(-c2cccs2)n1)c1ccccc1OC(F)F [Compound 15] | > 10 | –
CCOc1ccccc1-c1nc(CNC(=O)c2ccccc2OC(F)F)n[nH]1 [Compound 58] | < 1 | –
CCOc1ccc(Br)cc1-c1nc(CNC(=O)c2ccccc2OC(F)F)n[nH]1 [Compound 59] | > 10 | –
O=C(NCc1n[nH]c(-c2ccccc2O)n1)c1ccccc1OC(F)F [Compound 60, 2-(Difluoromethoxy)-N-((5-(2-hydroxyphenyl)-1H-1,2,4-triazol-3-yl)methyl) benzamide] | < 1 | –
O=C(NCc1n[nH]c(-c2cccc(O)c2O)n1)c1ccccc1OC(F)F [Compound 61, 2-(Difluoromethoxy)-N-((5-(2,3-dihydroxyphenyl)-1H-1,2,4-triazol-3-yl)methyl) benzamide] | 1 to 10 | –
COc1c(O)cccc1-c1nc(CNC(=O)c2ccccc2OC(F)F)n[nH]1 [Compound 62, 2-(difluoromethoxy)-N-((5-(3-hydroxy-2-methoxyphenyl)-1H-1,2,4-triazol-3-yl)methyl) benzamide] | 1 to 10 | –
COc1ccc(O)cc1-c1nc(CNC(=O)c2ccccc2OC(F)F)n[nH]1 [Compound 63, 2-(Difluoromethoxy)-N-((5-(5-hydroxy-2-methoxyphenyl)-1H-1,2,4-triazol-3-yl)methyl) benzamide] | 1 to 10 | –
O=C(NCc1n[nH]c(-c2cc(O)ccc2O)n1)c1ccccc1OC(F)F [Compound 64] | 1 to 10 | –
O=C(NCc1cc(-c2cccs2)[nH]n1)c1ccccc1N1CCC(F)(F)CC1 [Compound 65] | < 1 | –
O=C(NCc1cc(-c2cccs2)[nH]n1)c1ccccc1N1CCC(F)(F)C1 [Compound 66] | < 1 | –
O=C(NCc1cc(-c2cccs2)[nH]n1)c1ccccc1N1CCCCC1 [Compound 68] | < 1 | –
O=C(NCc1cc(-c2cccs2)[nH]n1)c1ccccc1N1CCOCC1 [Compound 69] | < 1 | –
O=C(NCc1cc(-c2cccs2)[nH]n1)c1ccccc1N1CCS(=O)(=O)CC1 [Compound 70] | > 10 | –
CN1CCN(c2ccccc2C(=O)NCc2cc(-c3cccs3)[nH]n2)CC1 [Compound 71] | 1 to 10 | –
O=C(NCc1cc(-c2cccs2)[nH]n1)c1ccccc1N1CCCC1 [Compound 72] | < 1 | –

Structure (SMILES) | IC50 (Homo sapiens, MIA PaCa-2, 72 h) [µM] | IC50 [µM]
O=C(NCc1n[nH]c(-c2cccs2)n1)c1ccccc1NCC(F)F [Compound 73] | > 10 | –
O=C(NCc1n[nH]c(-c2cccs2)n1)c1ccccc1N1CC(F)(F)C1 [Compound 74] | > 10 | –
O=C(NCc1n[nH]c(-c2cccs2)n1)c1ccccc1N1CCC(F)(F)C1 [Compound 75] | < 1 | –
O=C(NCc1n[nH]c(-c2cccs2)n1)c1ccccc1N1CCC(F)(F)CC1 [Compound 76, 2-(4,4-difluoropiperidin-1-yl)-N-((5-(thiophen-2-yl)-1H-1,2,4-triazol-3-yl)methyl) benzamide] | 1 to 10 | –
O=C(NCc1cc(-c2cccs2)[nH]n1)c1cc(C(F)(F)F)ccc1N1CCCC(F)(F)C1 [Compound 78] | < 1 | –
O=C(NCc1cc(-c2cccs2)[nH]n1)c1cccc(C(F)(F)F)c1N1CCCCC1 [Compound 79] | 1 to 10 | –
O=C(NCc1cc(-c2cccs2)[nH]n1)c1cc(F)ccc1N1CCCCC1 [Compound 80, 5-fluoro-2-(piperidin-1-yl)-N-((5-(thiophen-2-yl)-1H-pyrazol-3-yl)methyl) benzamide] | < 1 | –
O=C(NCc1cc(-c2cccs2)[nH]n1)c1cc(O)ccc1N1CCCC(F)(F)C1 [Compound 81] | 1 to 10 | –
O=C(NCc1cc(-c2cccs2)[nH]n1)c1cccc(C(F)(F)F)c1N1CCCC1 [Compound 82] | 1 to 10 | –
O=C(NCc1cc(-c2cccs2)[nH]n1)c1cc(C(F)(F)F)ccc1N1CCCC1 [Compound 83] | 1 to 10 | –
N#Cc1ccc(N2CCCC2)c(C(=O)NCc2cc(-c3cccs3)[nH]n2)c1 [Compound 84] | 1 to 10 | –
N#Cc1ccc(N2CCCC(F)(F)C2)c(C(=O)NCc2cc(-c3cccs3)[nH]n2)c1 [Compound 85] | < 1 | –
O=C(NCc1n[nH]c(-c2cccs2)n1)c1nccnc1N1CC(F)(F)C1 [Compound 86] | > 10 | –
O=C(NCc1n[nH]c(-c2cccs2)n1)c1nccnc1N1CCC(F)(F)C1 [Compound 87, 3-(3,3-difluoropyrrolidin-1-yl)-N-((5-(thiophen-2-yl)-1H-1,2,4-triazol-3-yl)methyl) pyrazine-2-carboxamide] | > 10 | –
O=C(NCc1cc(-c2cccs2)[nH]n1)c1cccnc1N1CC(F)(F)C1 [Compound 88] | > 10 | –
O=C(NCc1n[nH]c(-c2cccs2)n1)c1nccnc1N1CCC(F)(F)CC1 [Compound 89] | > 10 | –
